ChEMBL document CHEMBL5096227, “Discovery of Ervogastat (PF-06865571): A Potent and Selective Inhibitor of Diacylglycerol Acyltransferase 2 for the Treatment of Non-alcoholic Steatohepatitis” (J Med Chem, 2022)

Key:
[1] = test system: Rattus norvegicus; assay: In vivo inhibition of DGAT2 in sucrose diet fed Sprague-Dawley rat assessed as reduction in triglyceride level administered as single oral dose and measured after 2 hrs; format: functional, organism-based; settings: dose 0.3-90 mg/kg, DDE = dose-dependent effect
[2] = Half life in human; format: ADME
[3] = Plasma protein binding in cynomolgus monkey assessed as unbound fraction ratio at 2 uM; format: ADME, cell-free, Macaca fascicularis
[4] = Drug metabolism in rat hepatocytes assessed as hydrolytic cleavage of amide bond mediated metabolite formation; format: ADME, cell-based, Hepatocyte
[5] = Drug metabolism in cryopreserved human hepatocytes assessed as hydrolytic cleavage of amide bond mediated metabolite formation at 10 uM measured for 240 mins by HPLC-UV-MS analysis; format: ADME, cell-based, Hepatocyte; settings: 4 h
[6] = Drug metabolism in monkey hepatocytes assessed as hydrolytic cleavage of amide bond mediated metabolite formation; format: ADME, cell-based, Macaca mulatta, Hepatocyte; settings: rhesus monkey
[7] = test system: Rattus norvegicus; assay: In vivo inhibition of DGAT2 in high fat/high cholesterol diet fed Sprague-Dawley rat model assessed as reduction in plasma triglyceride level administered orally twice daily for 7 days starting from day 14 post diet and measured 2 hrs post last dose; format: functional, organism-based; settings: dose 0.3-90 mg/kg, route po, time 7.0 day, DDE = dose-dependent effect
[8] = Inhibition of [14C]-glycerol incorporation into triglycerides in rat primary hepatocytes; format: functional, cell-based; settings: hepatocyte
[9] = Half life in Wistar Han rat at 5 mg/kg, po; format: ADME, organism-based; settings: in vivo
[10] = Plasma clearance in cynomolgus monkey at 1 mg/kg, iv; format: ADME, organism-based, Macaca fascicularis
[11] = Volume of distribution at steady state in Wistar Han rat at 1 mg/kg, iv; format: ADME, organism-based; settings: in vivo, read-out: Vdss
[12] = target: Cytochrome P450 2C19 (Homo sapiens, UniProt P33261); assay: Reversible inhibition of CYP2C19 in pooled human liver microsomes using 4-Hydroxymephenytoin as substrate incubated for 20 mins in presence of NADPH by HPLC-MS/MS analysis; format: ADME, Microsome
Sequence of Cytochrome P450 2C19 (P33261 whole entry): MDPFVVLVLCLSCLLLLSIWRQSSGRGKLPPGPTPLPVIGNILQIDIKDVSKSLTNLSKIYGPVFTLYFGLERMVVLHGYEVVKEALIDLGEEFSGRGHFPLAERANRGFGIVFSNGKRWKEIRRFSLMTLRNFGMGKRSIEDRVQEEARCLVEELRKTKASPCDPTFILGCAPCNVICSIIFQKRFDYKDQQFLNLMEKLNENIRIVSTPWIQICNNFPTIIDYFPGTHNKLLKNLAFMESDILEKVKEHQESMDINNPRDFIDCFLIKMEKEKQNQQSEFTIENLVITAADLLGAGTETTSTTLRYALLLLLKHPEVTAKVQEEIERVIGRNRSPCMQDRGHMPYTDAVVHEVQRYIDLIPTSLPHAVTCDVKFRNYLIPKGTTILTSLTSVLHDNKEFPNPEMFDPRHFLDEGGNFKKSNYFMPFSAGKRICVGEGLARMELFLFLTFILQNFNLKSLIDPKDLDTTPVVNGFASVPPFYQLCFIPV

[13] = Half life in cynomolgus monkey at 5 mg/kg, po; format: ADME, organism-based, Macaca fascicularis; settings: in vivo
[14] = Inhibition of [14C]-glycerol incorporation into triglycerides in monkey primary hepatocytes; format: functional, cell-based, Macaca mulatta; settings: hepatocyte
[15] = Volume of distribution at steady state in cynomolgus monkey at 1 mg/kg, iv; format: ADME, organism-based, Macaca fascicularis; settings: in vivo, read-out: Vdss
[16] = physchem; settings: buffer, pH 7.4
Description: Lipophilicity, logD of compound at pH 7.4 by shake flask method

[17] = Drug metabolism in rat hepatocytes assessed as O-deethylation mediated pyridin-3-ol mediated metabolite formation; format: ADME, cell-based, Hepatocyte
[18] = target: T1, Diacylglycerol O-acyltransferase 1 (Homo sapiens, UniProt O75907); assay: Inhibition of human DGAT1 using [1-14C]decanoyl-CoA and 1,2-didecanoyl-sn-glycerol as substrates assessed as incorporation of [1-14C]decanoyl […] preincubated for 30 mins followed by substrate addition and measured after 30 to 90 mins by scintillation counting method
T1 sequence (O75907 whole entry): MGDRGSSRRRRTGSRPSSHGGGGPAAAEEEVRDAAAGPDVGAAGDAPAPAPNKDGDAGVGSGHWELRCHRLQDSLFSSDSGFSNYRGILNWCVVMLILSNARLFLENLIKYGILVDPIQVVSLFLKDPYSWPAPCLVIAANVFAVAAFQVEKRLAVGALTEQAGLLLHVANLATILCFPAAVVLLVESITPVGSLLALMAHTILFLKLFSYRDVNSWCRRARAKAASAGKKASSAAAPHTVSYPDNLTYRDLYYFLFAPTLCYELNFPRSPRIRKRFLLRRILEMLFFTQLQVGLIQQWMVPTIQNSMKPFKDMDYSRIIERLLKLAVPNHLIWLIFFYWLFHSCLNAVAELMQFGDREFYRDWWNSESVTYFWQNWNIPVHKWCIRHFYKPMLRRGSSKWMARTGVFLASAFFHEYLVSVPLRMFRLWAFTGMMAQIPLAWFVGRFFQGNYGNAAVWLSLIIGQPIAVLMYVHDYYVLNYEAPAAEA

[19] = In vivo inhibition of DGAT2 in high fat/high cholesterol diet fed Sprague-Dawley rat model assessed as reduction in plasma triglyceride level at 90 mg/kg, po administered twice daily for 7 days starting from day 14 post diet and measured 2 hrs post last dose relative to control; format: functional; parameters: scale not given: the % may be the effect or the level left; settings: time 7 day
[20] = Plasma clearance in Wistar Han rat at 1 mg/kg, iv; format: ADME, organism-based
[21] = In vivo inhibition of DGAT2 in high fat/high cholesterol diet fed Sprague-Dawley rat model assessed as reduction in hepatic triglyceride level at 90 mg/kg, po administered twice daily for 7 days starting from day 14 post diet and measured 2 hrs post last dose relative to control; format: functional; parameters: scale not given: the % may be the effect or the level left; settings: time 7 day
[22] = target: CYP3A4/5 (Homo sapiens, UniProt P08684+P20815); assay: Reversible inhibition of CYP3A4/5 in pooled human liver microsomes; format: ADME, Microsome
[23] = Oral bioavailability in cynomolgus monkey at 5 mg/kg; format: ADME, organism-based, Macaca fascicularis; settings: in vivo
[24] = Half life in cynomolgus monkey at 1 mg/kg, iv; format: ADME, organism-based, Macaca fascicularis; settings: in vivo
[25] = target: T2, Cytochrome P450 2B6 (Homo sapiens, UniProt P20813); assay: Reversible inhibition of CYP2B6 in pooled human liver microsomes; format: ADME, Microsome
T2 sequence (P20813 whole entry): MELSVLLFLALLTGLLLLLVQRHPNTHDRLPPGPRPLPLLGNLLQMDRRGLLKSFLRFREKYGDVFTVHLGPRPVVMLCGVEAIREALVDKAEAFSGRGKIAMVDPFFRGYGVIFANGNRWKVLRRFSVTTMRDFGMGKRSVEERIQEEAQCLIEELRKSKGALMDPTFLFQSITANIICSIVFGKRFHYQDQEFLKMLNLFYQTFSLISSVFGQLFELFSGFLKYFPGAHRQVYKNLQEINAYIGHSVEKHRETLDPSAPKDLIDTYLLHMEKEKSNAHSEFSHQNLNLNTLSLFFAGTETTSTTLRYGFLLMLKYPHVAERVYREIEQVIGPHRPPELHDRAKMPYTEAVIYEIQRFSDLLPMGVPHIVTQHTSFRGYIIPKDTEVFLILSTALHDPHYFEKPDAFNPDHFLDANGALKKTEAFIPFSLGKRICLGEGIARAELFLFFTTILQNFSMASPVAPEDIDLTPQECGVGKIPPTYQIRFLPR

[26] = Oral bioavailability in Wistar Han rat at 5 mg/kg; format: ADME, organism-based; settings: in vivo

CCOc1cccnc1Oc1cncc(-c2ncc(C(=O)N[C@H]3CCOC3)cn2)c1 [PF-06865571]
inhibition [1]: Dde | half-life [2]: 5 h | Ratio [3]: 0.36 | Drug metabolism [4]: Metabolite_Detected | Drug metabolism [5]: Metabolite_Detected | Drug metabolism [6]: Metabolite_Detected | Activity [7]: Dde | IC50 [8]: 0.00602 µM | half-life [9]: 1 h | clearance [10]: 10 mL/min/kg | Vd [11]: 0.9 L/kg | IC50 [12]: 57 µM | half-life [13]: 4 h | IC50 [14]: 0.00213 µM | Vd [15]: 0.7 L/kg | logD [16]: 1.9 | Drug metabolism [17]: Metabolite_Detected | IC50 [18]: > 50 µM | Activity [19]: 70% | clearance [20]: 61 mL/min/kg | Activity [21]: 49% | IC50 [22]: > 100 µM | bioavailability [23]: 48% | half-life [24]: 1 h | IC50 [25]: > 100 µM | bioavailability [26]: 31%
